ChEMBL document CHEMBL1148638, “Aminopyridine-based c-Jun N-terminal kinase inhibitors with cellular activity and minimal cross-kinase activity” (J Med Chem, 2006)

Tests used:
[1] = target: Mitogen-activated protein kinase 8 (Homo sapiens, UniProt P45983); assay: Inhibition of JNK1-mediated ATF2 phosphorylation
[2] = target: Mitogen-activated protein kinase 9 (Homo sapiens, UniProt P45984); assay: Inhibition of JNK2-mediated ATF2 phosphorylation
[3] = target: c-Jun N-terminal kinase, JNK (Homo sapiens, UniProt P45983+P53779+P45984); assay: Inhibition of cJun phosphorylation in HepG2 cell line

Chain of Mitogen-activated protein kinase 9 (P45984 whole entry): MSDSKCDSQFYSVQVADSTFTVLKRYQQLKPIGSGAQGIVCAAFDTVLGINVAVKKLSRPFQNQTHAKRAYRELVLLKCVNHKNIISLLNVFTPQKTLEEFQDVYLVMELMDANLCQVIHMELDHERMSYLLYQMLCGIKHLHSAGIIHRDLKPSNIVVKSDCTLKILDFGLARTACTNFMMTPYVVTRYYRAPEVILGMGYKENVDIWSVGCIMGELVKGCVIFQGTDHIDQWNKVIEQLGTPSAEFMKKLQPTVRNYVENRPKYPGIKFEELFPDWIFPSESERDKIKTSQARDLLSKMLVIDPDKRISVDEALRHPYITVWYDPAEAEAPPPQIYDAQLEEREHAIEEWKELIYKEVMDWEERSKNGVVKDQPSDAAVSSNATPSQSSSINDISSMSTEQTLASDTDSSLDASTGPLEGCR
Chain of Mitogen-activated protein kinase 8 (P45983 whole entry): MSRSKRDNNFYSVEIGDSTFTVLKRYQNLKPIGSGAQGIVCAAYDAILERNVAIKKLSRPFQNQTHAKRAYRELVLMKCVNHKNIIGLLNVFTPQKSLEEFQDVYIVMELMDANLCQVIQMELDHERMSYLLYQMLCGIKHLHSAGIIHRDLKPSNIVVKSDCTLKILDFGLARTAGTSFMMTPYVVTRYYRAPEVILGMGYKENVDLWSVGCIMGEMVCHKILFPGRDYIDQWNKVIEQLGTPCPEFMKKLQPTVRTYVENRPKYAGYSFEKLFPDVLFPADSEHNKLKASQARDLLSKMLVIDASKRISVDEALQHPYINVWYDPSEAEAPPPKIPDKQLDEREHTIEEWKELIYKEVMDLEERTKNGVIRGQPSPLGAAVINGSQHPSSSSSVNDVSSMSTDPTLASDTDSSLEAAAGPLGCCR

SMILES: CCOc1nc(NC(=O)Cc2cc(OC)c([N+](=O)[O-])cc2OC)cc(N)c1C#N
- IC50 [1]: 0.069 µM
- IC50 [2]: 0.1 µM
- EC50 [3]: 0.91 µM

SMILES: CCOc1nc(NC(=O)C(C)C)cc(N)c1C#N
- IC50 [1]: 4 µM
- IC50 [2]: 8.4 µM

SMILES: CCOc1nc(NC(=O)Cc2cc(OC)c(Br)cc2OC)cc(N)c1C#N
- IC50 [2]: 0.16 µM
- EC50 [3]: 0.89 µM

SMILES: CCOc1nc(NC(=O)Cc2ccc(C)cc2)cc(N)c1C#N
- IC50 [1]: 0.19 µM
- IC50 [2]: 0.36 µM
- EC50 [3]: 3.4 µM

SMILES: CCOc1nc(NC(=O)Cc2ccc(Cl)cc2)cc(N)c1C#N
- IC50 [1]: 0.58 µM
- IC50 [2]: 0.61 µM

SMILES: CCOc1nc(NC(=O)Cc2ccccc2C)cc(N)c1C#N
- IC50 [1]: 0.4 µM
- IC50 [2]: 0.74 µM

SMILES: CCCCC(=O)N(C)c1cc(N)c(C#N)c(OCC)n1
- IC50 [1]: > 10 µM
- IC50 [2]: > 10 µM

SMILES: CC(=O)Nc1cc(N)c(C#N)c(OCCN(C)C)n1
- IC50 [1]: > 10 µM
- IC50 [2]: > 10 µM

SMILES: COc1ccc(OC)c(CC(=O)Nc2cc(N)c(C#N)c(OCCO)n2)c1
- IC50 [1]: 0.074 µM
- IC50 [2]: 0.24 µM
- EC50 [3]: 1.6 µM

SMILES: CCCCC(=O)Nc1nc(OCC)c(C#N)c(N)c1Cl
- IC50 [1]: > 10 µM
- IC50 [2]: > 10 µM

SMILES: CCOc1nc(NC(=O)CN(CC)CC)cc(N)c1C#N
- IC50 [1]: 2.7 µM
- IC50 [2]: 6.3 µM

SMILES: COCCOc1nc(NC(=O)Cc2cc(OC)ccc2OC)cc(N)c1C#N
- IC50 [1]: 0.11 µM
- IC50 [2]: 0.27 µM
- EC50 [3]: 1.4 µM

SMILES: CCOc1nc(NC(=O)Cc2cccc(C)c2)cc(N)c1C#N
- IC50 [1]: 0.42 µM
- IC50 [2]: 0.79 µM

SMILES: CCCc1nc(NC(C)=O)cc(N)c1C#N
- IC50 [1]: > 10 µM
- IC50 [2]: > 10 µM

SMILES: COc1nc(NC(C)=O)cc(N)c1C#N
- IC50 [1]: 2.2 µM
- IC50 [2]: 4.5 µM

SMILES: CC(=O)Nc1cc(N)c(C#N)c(OCCC(=O)O)n1
- IC50 [1]: 4.8 µM
- IC50 [2]: 4.9 µM

SMILES: CCOc1nc(NC(=O)Cc2ccc(OC)cc2)cc(N)c1C#N
- IC50 [1]: 0.18 µM
- IC50 [2]: 0.274 µM
- EC50 [3]: 1.4 µM

SMILES: CCOc1nc(NC(=O)CC(C)C)cc(N)c1C#N
- IC50 [1]: 1.4 µM
- IC50 [2]: 3.5 µM

SMILES: CCOc1nc(NC(=O)Cc2ccccc2)cc(N)c1C#N
- IC50 [1]: 0.57 µM
- IC50 [2]: 0.77 µM

SMILES: CCCCC(=O)Nc1cc(N)c(C#N)c(OCC)n1
- IC50 [1]: 0.35 µM
- IC50 [2]: 0.69 µM

SMILES: CCCN(CCO)CC(=O)Nc1cc(N)c(C#N)c(OCC)n1
- IC50 [1]: 0.16 µM
- IC50 [2]: 0.74 µM
- EC50 [3]: 5.5 µM

SMILES: CCNc1nc(NC(C)=O)cc(N)c1C#N
- IC50 [1]: 2.4 µM
- IC50 [2]: > 10 µM

SMILES: CC(=O)Nc1cc(N)c(C#N)c(OC(C)C)n1
- IC50 [1]: 0.31 µM
- IC50 [2]: 0.47 µM

SMILES: CCOc1nc(NC(=O)Cc2cccc(Cl)c2)cc(N)c1C#N
- IC50 [1]: 0.3 µM
- IC50 [2]: 0.9 µM

SMILES: CCOc1nc(NC(=O)Cc2cc(C)ccc2C)cc(N)c1C#N
- IC50 [1]: 4.4 µM
- IC50 [2]: > 10 µM

SMILES: CCOc1nc(NC(=O)CN2CCC(O)CC2)cc(N)c1C#N
- IC50 [1]: 0.3 µM
- IC50 [2]: 0.64 µM

SMILES: CCNC(=O)Nc1cc(N)c(C#N)c(OCC)n1
- IC50 [1]: > 10 µM
- IC50 [2]: > 10 µM
